The subject of series [1] is RAW264.7. Nature of the series: Cytotoxicity against mouse RAW264.7 cells assessed as cell viability at 20 uM incubated for 24 hrs by CCK8 assay. Particulars: raw264.7, 24 h. The class given is toxicity, cell-based.
Series [2] deals with RAW264.7. The series can be described thus: Anti-inflammatory activity in mouse RAW264.7 cells assessed as inhibition of LPS-induced NO production at 10 uM incubated for 24 hrs relative to control. The format is functional.
Series [3] concerns RAW264.7. Nature of the series: Anti-inflammatory activity in mouse RAW264.7 cells assessed as inhibition of LPS-induced NO production incubated for 24 hrs. The format is functional, cell-based. To be noted: for IC50: RAW264.7, 24 h; for inhibition: dose 1.25-20 µM.

In the case of `C/C(=C\c1ccccc1)C(=O)N1CCN(C(=O)CC[C@@H](C)[C@H]2CC[C@H]3[C@@H]4[C@@H](O)C[C@@H]5C[C@H](O)CC[C@]5(C)[C@H]4CC[C@]23C)CC1`, the Activity result with RAW264.7 [1] is recorded as “Non-Toxic”.
As for `CC(=O)O[C@@H]1CC[C@@]2(C)[C@@H](C1)C[C@H](OC(C)=O)[C@@H]1[C@@H]2CC[C@]2(C)[C@@H]([C@H](C)CCC(=O)N3CCN(C(=O)/C=C/c4ccc(C)cc4)CC3)CC[C@@H]12`, in the series with RAW264.7 [1], the Activity result is listed as “Non-Toxic”.
As to `C[C@H](CCC(=O)N1CCN(C(=O)CCc2ccccc2)CC1)[C@H]1CC[C@H]2[C@@H]3[C@@H](O)C[C@@H]4C[C@H](O)CC[C@]4(C)[C@H]3CC[C@]12C`, the Activity entry in the series on RAW264.7 [1] is reported as “Non-Toxic”.
Regarding `C[C@H](CCC(=O)N1CCN(C(=O)/C=C/c2ccc(O)cc2)CC1)[C@H]1CC[C@H]2[C@@H]3[C@@H](O)C[C@@H]4C[C@H](O)CC[C@]4(C)[C@H]3CC[C@]12C`, the Activity entry in the series with RAW264.7 [1] is listed as “Non-Toxic”.
With `COc1cc(/C=C/C(=O)N2CCN(C(=O)CC[C@@H](C)[C@H]3CC[C@H]4[C@@H]5[C@@H](O)C[C@@H]6C[C@H](O)CC[C@]6(C)[C@H]5CC[C@]34C)CC2)cc(OC)c1O`, the Activity entry in the series on RAW264.7 [1] is reported as “Toxic”.
Turning to `C[C@H](CCC(=O)N1CCN(C(=O)/C=C/c2ccc(F)cc2F)CC1)[C@H]1CC[C@H]2[C@@H]3[C@@H](O)C[C@@H]4C[C@H](O)CC[C@]4(C)[C@H]3CC[C@]12C`, the Activity result in the series with RAW264.7 [1] was “Toxic”.
Same read-out and setting: in the case of `C[C@H](CCC(=O)N1CCN(C(=O)/C=C/c2cccc3ccccc23)CC1)[C@H]1CC[C@H]2[C@@H]3[C@@H](O)C[C@@H]4C[C@H](O)CC[C@]4(C)[C@H]3CC[C@]12C` it was “Non-Toxic”; in that of `C[C@H](CCC(=O)N1CCN(C(=O)/C=C\c2ccc3c(c2)OCO3)CC1)[C@H]1CC[C@H]2[C@@H]3[C@@H](O)C[C@@H]4C[C@H](O)CC[C@]4(C)[C@H]3CC[C@]12C`, “Non-Toxic”; in that of `C[C@H](CCC(=O)N1CCN(C(=O)/C=C/c2ccc(OC(F)(F)F)cc2)CC1)[C@H]1CC[C@H]2[C@@H]3[C@@H](O)C[C@@H]4C[C@H](O)CC[C@]4(C)[C@H]3CC[C@]12C`, “Toxic”.
Still for that read-out and setting: the result for `C[C@H](CCC(=O)N1CCN(C(=O)/C=C/c2ccc(F)c(F)c2)CC1)[C@H]1CC[C@H]2[C@@H]3[C@@H](O)C[C@@H]4C[C@H](O)CC[C@]4(C)[C@H]3CC[C@]12C` reads “Non-Toxic”; that for `C[C@H](CCC(=O)N1CCN(C(=O)/C=C/c2cccc(O)c2)CC1)[C@H]1CC[C@H]2[C@@H]3[C@@H](O)C[C@@H]4C[C@H](O)CC[C@]4(C)[C@H]3CC[C@]12C`, “Non-Toxic”.
Regarding `C[C@H](CCC(=O)N1CCN(C(=O)/C=C/c2ccccc2)CC1)[C@H]1CC[C@H]2[C@@H]3[C@@H](O)C[C@@H]4C[C@H](O)CC[C@]4(C)[C@H]3CC[C@]12C`, the Activity result in the series with RAW264.7 [1] is given as “Non-Toxic”. The inhibition at 10 µM in the series on RAW264.7 [2] was over 50%. In the series with RAW264.7 [3], the IC50 was 9.5 µM and the inhibition result is “Dose-Dependent Effect”.
For `C[C@H](CCC(=O)N1CCN(C(=O)/C=C/c2cccc(Cl)c2)CC1)[C@H]1CC[C@H]2[C@@H]3[C@@H](O)C[C@@H]4C[C@H](O)CC[C@]4(C)[C@H]3CC[C@]12C`, in the series on RAW264.7 [1], the Activity result is “Non-Toxic”.
Take `COc1cc(/C=C\C(=O)N2CCN(C(=O)CC[C@@H](C)[C@H]3CC[C@H]4[C@@H]5[C@@H](O)C[C@@H]6C[C@H](O)CC[C@]6(C)[C@H]5CC[C@]34C)CC2)ccc1O`: in the series on RAW264.7 [1], the Activity result is reported as “Non-Toxic”.
Same read-out and setting: in the case of `COc1cc(/C=C\C(=O)N2CCN(C(=O)CC[C@@H](C)[C@H]3CC[C@H]4[C@@H]5[C@@H](O)C[C@@H]6C[C@H](O)CC[C@]6(C)[C@H]5CC[C@]34C)CC2)cc(OC)c1OC` it was “Non-Toxic”; in that of `C[C@H](CCC(=O)N1CCN(C(=O)/C=C/c2ccccc2O)CC1)[C@H]1CC[C@H]2[C@@H]3[C@@H](O)C[C@@H]4C[C@H](O)CC[C@]4(C)[C@H]3CC[C@]12C`, “Non-Toxic”; in that of `C[C@H](CCC(=O)N1CCN(C(=O)/C=C/c2ccc3c(c2)OCO3)CC1)[C@H]1CC[C@H]2[C@@H]3[C@@H](O)C[C@@H]4C[C@H](O)CC[C@]4(C)[C@H]3CC[C@]12C`, “Non-Toxic”.
The same measure, in the same setting: the result for `C[C@H](CCC(=O)N1CCN(C(=O)/C=C/c2ccc(Cl)c(Cl)c2)CC1)[C@H]1CC[C@H]2[C@@H]3[C@@H](O)C[C@@H]4C[C@H](O)CC[C@]4(C)[C@H]3CC[C@]12C` reads “Non-Toxic”; that for `C[C@H](CCC(=O)N1CCN(C(=O)/C=C/c2ccccc2Cl)CC1)[C@H]1CC[C@H]2[C@@H]3[C@@H](O)C[C@@H]4C[C@H](O)CC[C@]4(C)[C@H]3CC[C@]12C`, “Non-Toxic”; that for `C[C@H](CCC(=O)N1CCN(C(=O)/C=C/c2ccc(C(F)(F)F)cc2)CC1)[C@H]1CC[C@H]2[C@@H]3[C@@H](O)C[C@@H]4C[C@H](O)CC[C@]4(C)[C@H]3CC[C@]12C`, “Non-Toxic”.
In the case of `COc1ccc(/C=C/C(=O)N2CCN(C(=O)CC[C@@H](C)[C@H]3CC[C@H]4[C@@H]5[C@@H](O)C[C@@H]6C[C@H](O)CC[C@]6(C)[C@H]5CC[C@]34C)CC2)cc1`, the Activity result in the series with RAW264.7 [1] was “Non-Toxic”.
Regarding `COc1cc(/C=C/C(=O)N2CCN(C(=O)CC[C@@H](C)[C@H]3CC[C@H]4[C@@H]5[C@@H](O)C[C@@H]6C[C@H](O)CC[C@]6(C)[C@H]5CC[C@]34C)CC2)cc(OC)c1OC`, the Activity entry in the series with RAW264.7 [1] is given as “Non-Toxic”. For the same molecule, the inhibition at 10 µM in the series on RAW264.7 [2] is over 50%. Also, in the series on RAW264.7 [3], the IC50 was determined as 9.49 µM and the inhibition result is “Dose-Dependent Effect”.
With `COc1cc(/C=C/C(=O)N2CCN(C(=O)CC[C@@H](C)[C@H]3CC[C@H]4[C@@H]5[C@@H](O)C[C@@H]6C[C@H](O)CC[C@]6(C)[C@H]5CC[C@]34C)CC2)ccc1O`, in the series on RAW264.7 [1], the Activity result was “Non-Toxic”.
Still for that read-out and setting: the result for `Cc1ccc(/C=C/C(=O)N2CCN(C(=O)CC[C@@H](C)[C@H]3CC[C@H]4[C@@H]5C(=O)C[C@@H]6CC(=O)CC[C@]6(C)[C@H]5CC[C@]34C)CC2)cc1` reads “Toxic”.
On to `C[C@H](CCC(=O)N1CCN(C(=O)/C=C/c2ccc(Cl)cc2)CC1)[C@H]1CC[C@H]2[C@@H]3[C@@H](O)C[C@@H]4C[C@H](O)CC[C@]4(C)[C@H]3CC[C@]12C`, for which the Activity entry in the series on RAW264.7 [1] is “Non-Toxic”. Further, the inhibition at 10 µM in the series on RAW264.7 [2] was over 50%. In addition, in the series with RAW264.7 [3], the IC50 amounted to 8.23 µM and the inhibition entry was “Dose-Dependent Effect”.
As to `C[C@H](CCC(=O)N1CCN(C(=O)/C=C/c2cc(F)cc(F)c2)CC1)[C@H]1CC[C@H]2[C@@H]3[C@@H](O)C[C@@H]4C[C@H](O)CC[C@]4(C)[C@H]3CC[C@]12C`, the Activity entry in the series with RAW264.7 [1] is on record as “Non-Toxic”.
Turning to `C[C@H](CCC(=O)N1CCN(C(=O)/C=C/c2cccc(OC(F)(F)F)c2)CC1)[C@H]1CC[C@H]2[C@@H]3[C@@H](O)C[C@@H]4C[C@H](O)CC[C@]4(C)[C@H]3CC[C@]12C`, in the series on RAW264.7 [1], the Activity result was “Non-Toxic”. In the series with RAW264.7 [2], the inhibition at 10 µM is over 50%. Further, in the series on RAW264.7 [3], the IC50 worked out at 8.58 µM and the inhibition entry was “Dose-Dependent Effect”.
For the molecule `C[C@H](CCC(=O)N1CCN(C(=O)/C=C/c2cc(F)c(F)c(F)c2)CC1)[C@H]1CC[C@H]2[C@@H]3[C@@H](O)C[C@@H]4C[C@H](O)CC[C@]4(C)[C@H]3CC[C@]12C`, the Activity entry in the series with RAW264.7 [1] was “Toxic”.

These data come from ChEMBL document CHEMBL5625254, “Design, synthesis and evaluation of ursodeoxycholic acid-cinnamic acid hybrids as potential anti-inflammatory agents by inhibiting Akt/NF-κB and MAPK signaling pathways” (Eur J Med Chem, 2023).
